Reference: patent US8962263B2, “Methods and compositions for detecting the activation state of multiple proteins in single cells” (The Board of Trustees of the Leland Stanford Junior …, priority 2001, dated 2015)

Tests used:
LFA-1 [1] = experiment: LFA-1 activation by mAb24-Alexa633 staining, flow cytometry; assay type: cell-based, human; conditions: Jurkat cells; agents 10 μM 30 min, PMA 1 μg/ml, prior to ICAM-2 10 μg/ml 30 min
Procedure: A) Confocal microscopy of actin and microtubule architecture upon ICAM-2, stimulus (10, μg/ml, 30, min) in Jurkat cells. Actin was stained by phalloidin-alexa633, and tubulin by taxol-alexa546. Inserts display enlarged cell image of representative treatment B) Flow cytometric staining for actin and microtubules as described above. C) Left: Fluorescence topography analysis of ICAM-2-FITC (1 μg/ml, time as indicated) surface distribution. Intensity color gradient depicts high and low fluorescent intensity values. Right: Confocal microscopy of ICAM-2-FITC surface binding (10 μg/ml, 30, min) and anti-β2-alexa568, (clone CTB104). D) Staining for ICAM-2-FITC surface binding (fluorescence intensity) and surface distribution (fluorescence pulse) in cytochalisin D treated Jurkat cells at 37° C. and 4° C. by flow cytometry. E) Values for ICAM-2-FITC fluorescence intensity per time-of-flight per cell as described in text. F) Flow cytometric staining for LFA-1 activation by mAb24-alexa633. Stimuli as indicated (10, μM, 30, min), PMA (1, μg/ml) prior to ICAM-2, stimulation (10, μg/ml, 30, min). Staining was performed at 37° C. G) Mean fluorescence intensity (MFI) values of mAb24-633, and ICAM-2, cluster values, computed as described above, as a function of time.
(§1) Intracellular and extracellular staining was performed as described (Perez and Nolan, 2002). Intracellular probes for active kinases were made by conjugating phospho-specific antibodies to the ALEXA FLUOR® dye series as described and used in phospho-protein optimized conditions (Perez and Nolan, 2002). Kinetic analyses was performed by direct application of fixation buffer in time synchronized 96-wells maintained at 37° C. Intracellular actin and microtubule staining was performed using phalloidin-Alexa633 and taxol-Alexa546 dyes (Molecular Probes). Adhesion and clustering assays were performed using ICAM-2-FITC as described in text. LFA-1 activation was assessed by either mAb24-Alexa633 or mAb24-Alexa546 conjugate, surface stained at 37° C. Flow cytometry data are representative of 3 independent experiments of 10^6 cells/sample. 10-50,000 events were collected and manually calibrated on a FACSCalibur™ machine. Data plotted in bar graph format is expressed as geometric mean fluorescence intensity (MFI) and normalized for isotype controls. Log ratios are defined as the MFI of stimulus to the MFI of unstimulated cells. Data was analyzed using Flowjo™ software (Treestar).

p44/42 MAPK = experiment: intracellular phospho-p44/42 MAPK by flow cytometry in ICAM-2 treated Jurkat cells; assay type: cell-based, human; conditions: chemical agents 10 μM, EDTA 1 mM; mAbs titrated prior to ICAM-2
Source text: A) Mean fluorescent intensity values (MFI) of ICAM-2-FITC (adhesion) and mAb24-Alexa633, (LFA-1, activation) in treated Jurkat cells (as above). Control unstimulated and/or compound pretreated values were subtracted. B) Top panel: Intracellular phospho-p44/42, MAPK detection as a function of ICAM-2, dose in Jurkat cells by flow cytometry (see Material and Methods). Mean fluorescent intensity values (MFI) were plotted±standard deviation (SD). Bottom panel: ICAM-2, treated Jurkat cells were stained for intracellular phospho-p44/42, MAPK as described above. mAbs to β2, and αL, integrins (10, μg/ml, 10, minutes) were titrated prior to ICAM-2, treatment as indicated and plotted for MFI±SD. C) ICAM-2, induced p44/42, MAPK activity is blocked by β2, and αL, integrin antibodies as determined by a p44/42 MAPK kinase assay. Conditions for induction and inhibition are as described above. Recombinant active p44/42, MAPK served as an internal positive control (denoted by “+”). D) Inhibition and activation profile for intracellular phospho-p44/42, by flow cytometry in the presences of chemical agents (10, μM), EDTA (1, mM), or PMA, ionomycin and ICAM-2, stimulus (as indicated above). MFI values±SD are plotted.
as §1

NIH3T3 = experiment: staurosporine induced apoptosis in ICAM-2 transduced NIH3T3 (annexin-V binding, BrdU TUNEL); assay type: cell-based, murine; conditions: for effect on ICAM-2 anti-apoptotic effect, other kinase inhibitors: cell type not stated, data not shown
Procedure: A) Pharmacological inhibitors of PI3K abrogate ICAM-2's anti-apoptotic. ICAM-2, or vector transduced BaF3, cells were treated with staurosporine (1, μM) with (unfilled) or without (filled) the addition of 100, nM wortmannin for 24, hours (left bar graph). Apoptosis was determined by nuclear staining and fluorescence microscopy (left bar graph) and by annexin-V binding assay (right bar graph). The proportion of apoptotic cells in each culture without staurosporine was 8%+/−2. The percentage of apoptotic cells is expressed as the mean (bar)+SD of triplicate cultures. ICAM-2, 1CAM2-AC, or vector transduced NIH3T3, were treated with staurosporine ([…]) in the presence or absence of 10, μM LY294002, for 24, hours (right bar graph). DMSO vehicle served as negative control. The percentage of apoptotic cells is expressed as the mean (bar)+/−SD of triplicate cultures. B) Confocal images of PI3K and AKT localization in ICAM-2, (top) or vector control cells (bottom). C) Confocal images of ezrin and the p85, subunit of PI3K (green) localization in ICAM-2, (top) or vector control cells (bottom).
A) The anti-apoptotic effect of ICAM-2, is both wortmannin and LY294002, sensitive. ICAM-2, or vector transduced BaF3, cells were treated with staurosporine (1, μM) with (unfilled) or without (filled) the addition of 100, nM wortmannin for 24 hours. Apoptosis was determined by nuclear staining and fluorescence microscopy (left bar graph) and by annexin-V binding assay (right bar graph). The proportion of apoptotic cells in each culture without staurosporine was 8%±2. The percentage of apoptotic cells is expressed as the mean (bar)±SD of triplicate cultures. ICAM-2, ICAM2-ΔC, or vector transduced NIH3T3, were treated with staurosporine (1, μM) in the presence or absence of 10, μM LY294002, for 24, hours. DMSO vehicle served as negative control. The percentage of apoptotic cells is expressed as the mean (bar)±SD of triplicate cultures. B) ICAM-2, expressing NIH3T3, cells are sensitive to apoptosis in the presence of PI3K inhibitor LY294002. BrdU TUNEL assay was performed in staurosporine (1, μM) or LY294002, (10, μM) treated ICAM-2, ICAM2-ΔC, and control vector transduced NIH3T3, cells. The percentage of apoptotic cells is expressed as the mean (bar)±SD of triplicate cultures.
Apoptosis was determined either by counting pyknotic nuclei, annexin-V binding by flow cytometry, or TUNEL BrdU staining by flow cytometry as indicated. Apoptosis was induced either by staurosporine (1 μm), treatment with anti-mouse Fas (5 μq/ml Santa Cruz Biotechnology (SCB), […] Fas (5 μg/ml Jo2 Biomed) or anti-human Fas (10 ng/ml CH11 Kamiya Biomedical) as indicated in appropriate experiment, IL-3 withdrawal-(24 hrs) or as indicated. For pyknolic nuclei count, NIH3T3 cells were grown on glass coverslips and assayed for apoptosis. Suspension cells were analyzed by nuclear staining with 25 μM acridine orange/25 μm ethidium bromide or 5 μg/ml Hoechst 33342 (Molecular Probes, Eugene, Oreg.). Apoptosis was identified by the presence of characteristic pyknotic nuclei as described (Jacobson and Raff, 1995). At least 5 individual fields were photographed and counted using a Zeiss axioscope fluorescence microscope. For the survival assay 10^6 NIH3T3 cells were plated in 10 cm dishes and incubated overnight at 37° C. The cells were treated with 1 μM staurosporine for 24 hours. The cells were washed and cultured for 24 hours in complete medium. The cells were trypsinized and viable cells counted following trypan blue staining. Untreated cells were counted at the time of treatment. % survival represents (number of viable cells post-treatment)/(number of viable cells pretreatment). FACS based annexin-V-FITC/PI staining was done as described (PharMingen). TUNEL assay was performed as described by manufacturer of Apoptosis BrdU kit (Promega). […]

Pyk2 = experiment: sICAM-2 induced Pyk2 phosphorylation (phospho-tyrosine based ELISA, chemical genetic approach); assay type: cell-based; conditions: phospho-tyrosine based ELISA
Source text: E) depicts that LFA-1, induced phosphorylation of Pyk2, and Syk is dependent on PKC. We screened for the inhibition of sICAM-2, induced Pyk2, and Syk phosphorylation by chemical inhibitors to tyrosine kinases using a phospho-tyrosine based ELISA. Pyk2, phosphorylation was abrogated in the presence of PKC inhibitors bisindolymaleimide II (BIM II) and staurosporine (STP), in addition to tyrphostin A9, a specific Pyk2, inhibitor. a Pyk2, phosphorylation was also affected by inhibitors of phospholipase Cg (neomycin), inhibitors of Syk (piceatannol), and PKC inhibitor BIM I. Syk phosphorylation was completely abolished by inhibition of Pyk2, PLCg1, and strongly affected by PKC inhibitors. Thus, both Pyk2, and Syk phosphorylations were dependent on PKC activity, while Syk phosphorylation was additionally dependent on PLCg1, and Pyk2, activity. It was not possible to assess specific PKC isozymes by this method.
A chemical genetic approach was undertaken to determine the hierarchy of PKC, Pyk2, PLCg1, and Syk activities in response to sICAM-2, stimulus by verifying phosphorylation status of each kinase in the presence of respective chemical inhibitors. Inhibition of PKC with BIM II abrogated phosphorylation of Pyk2, PLCg1, and Syk. Inhibition of PLCg1, by neomycin abrogated phosphorylation of Syk, with no inhibition observed for Pyk2. […] Thus, the upstream signaling events from LFA-1, to Raf-1, appear to involve PKC/Pyk2/PLCg1/Syk. […] We are currently pursuing these complexes in a separate study.

LFA-1 [2] = biological target: LFA-1 (Homo sapiens, UniProt P20701); conditions: cited from earlier work
Sequence of LFA-1 (Homo sapiens, UniProt P20701) (P20701 26-1170): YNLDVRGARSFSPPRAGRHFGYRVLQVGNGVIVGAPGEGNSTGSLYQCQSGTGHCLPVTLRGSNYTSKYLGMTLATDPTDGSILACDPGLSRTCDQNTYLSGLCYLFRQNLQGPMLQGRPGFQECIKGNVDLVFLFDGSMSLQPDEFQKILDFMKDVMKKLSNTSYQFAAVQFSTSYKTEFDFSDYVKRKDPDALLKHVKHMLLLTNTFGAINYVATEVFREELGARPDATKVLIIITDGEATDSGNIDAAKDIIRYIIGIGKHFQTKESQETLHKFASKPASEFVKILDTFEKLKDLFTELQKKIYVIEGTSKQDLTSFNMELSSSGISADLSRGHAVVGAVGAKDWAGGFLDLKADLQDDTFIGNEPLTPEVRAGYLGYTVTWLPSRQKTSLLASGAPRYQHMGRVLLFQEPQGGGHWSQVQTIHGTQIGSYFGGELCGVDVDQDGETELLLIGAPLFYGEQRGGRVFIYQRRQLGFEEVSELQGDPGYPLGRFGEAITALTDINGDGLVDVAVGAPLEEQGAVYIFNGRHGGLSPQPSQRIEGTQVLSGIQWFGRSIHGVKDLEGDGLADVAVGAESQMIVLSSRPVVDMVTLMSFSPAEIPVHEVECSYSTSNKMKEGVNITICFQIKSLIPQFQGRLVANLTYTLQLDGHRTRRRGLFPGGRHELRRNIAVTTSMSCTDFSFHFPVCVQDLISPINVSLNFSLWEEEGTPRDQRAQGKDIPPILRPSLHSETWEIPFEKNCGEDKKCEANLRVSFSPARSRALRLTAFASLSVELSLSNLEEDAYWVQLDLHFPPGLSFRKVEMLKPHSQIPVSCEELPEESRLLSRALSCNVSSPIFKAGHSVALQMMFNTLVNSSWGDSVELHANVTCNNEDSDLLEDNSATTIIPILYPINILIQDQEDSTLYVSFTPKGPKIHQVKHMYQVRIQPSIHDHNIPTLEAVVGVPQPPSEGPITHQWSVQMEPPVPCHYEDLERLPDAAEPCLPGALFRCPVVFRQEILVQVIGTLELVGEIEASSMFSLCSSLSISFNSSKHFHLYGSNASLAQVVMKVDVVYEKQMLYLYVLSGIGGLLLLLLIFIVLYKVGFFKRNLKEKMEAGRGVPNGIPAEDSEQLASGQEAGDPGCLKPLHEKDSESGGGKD
Sequence of LFA-1 (Homo sapiens, UniProt P20701) (P05107 23-769 partner): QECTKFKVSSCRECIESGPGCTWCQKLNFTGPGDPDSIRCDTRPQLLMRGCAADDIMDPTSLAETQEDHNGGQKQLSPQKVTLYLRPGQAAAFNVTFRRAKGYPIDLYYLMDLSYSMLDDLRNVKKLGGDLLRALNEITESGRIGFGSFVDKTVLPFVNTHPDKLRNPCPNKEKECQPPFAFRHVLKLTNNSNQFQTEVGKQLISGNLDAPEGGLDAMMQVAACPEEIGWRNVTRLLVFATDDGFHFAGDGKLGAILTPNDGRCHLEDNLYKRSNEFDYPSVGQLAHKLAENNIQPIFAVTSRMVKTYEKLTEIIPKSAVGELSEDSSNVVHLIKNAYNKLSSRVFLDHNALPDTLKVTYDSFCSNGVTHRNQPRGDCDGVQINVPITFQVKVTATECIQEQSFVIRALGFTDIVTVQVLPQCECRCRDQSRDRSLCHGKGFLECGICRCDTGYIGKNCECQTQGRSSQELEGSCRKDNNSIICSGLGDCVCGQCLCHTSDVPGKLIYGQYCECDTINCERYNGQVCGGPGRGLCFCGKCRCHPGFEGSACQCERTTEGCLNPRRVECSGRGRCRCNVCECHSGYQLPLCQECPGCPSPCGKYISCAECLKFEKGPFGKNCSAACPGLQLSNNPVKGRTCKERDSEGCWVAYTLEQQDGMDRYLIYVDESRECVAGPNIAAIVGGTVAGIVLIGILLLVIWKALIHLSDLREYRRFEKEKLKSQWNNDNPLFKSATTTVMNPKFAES

**Q.** For COC(=O)Nc1nc2cc(C(=O)c3cccs3)ccc2[nH]1 [nocodazole], which “LFA-1 activation (mAb24 binding)” value (LFA-1 [1]) is on record?
**A.** The value was “full activation of LFA-1”.

**Q.** And the “effect on ICAM-2 induced p44/42 MAPK phosphorylation” value (p44/42 MAPK)?
**A.** The value was “diminished”.

**Q.** For O=S(=O)(NCCNC/C=C/c1ccc(Br)cc1)c1cccc2cnccc12 [H-89], which “effect on ICAM-2 anti-apoptotic effect, other kinase inhibitors” value (“effect … other kinase inhibitors” below) (NIH3T3) is on record?
**A.** Its value is “not abrogated”.

**Q.** Which “ICAM-2 induced survival signal” value (NIH3T3; PKC isozyme inhibitors, system not specified) does the source give for CN[C@@H]1C[C@H]2O[C@@](C)([C@@H]1OC)n1c3ccccc3c3c4c(c5c6ccccc6n2c5c31)C(=O)NC4 [staurosporine] here?
**A.** The value was “did not abrogate”.

**Q.** And the “sICAM-2 induced Pyk2 phosphorylation” value (Pyk2)?
**A.** The value was “abrogated”.

**Q.** Which “effect … other kinase inhibitors” value (NIH3T3) does the source give for C[S+]([O-])c1ccc(-c2nc(-c3ccncc3)c(-c3ccc(F)cc3)[nH]2)cc1 (stereo not drawn) [SB 203580] here?
**A.** Its value is “not abrogated”.

**Q.** With N#CC(=C(/N)Sc1ccccc1N)/C(C#N)=C(\N)Sc1ccccc1N [U0126] as the compound, how does the “effect … other kinase inhibitors” value (NIH3T3) read?
**A.** Its value is “not abrogated”.

**Q.** Which “concentration inducing LFA-1 mediated adhesion” value (LFA-1 [2]; bulk cellular adhesion assay) does the source give for “P1: synthesized peptide of ICAM-2's first Ig domain (P1, amino acids 21-42) (GSDEKVFEVHVRPKKLAVEPKG; UniProt P13598 21-42, looked up, fragment)” here?
**A.** The value was 62 µM.

**Q.** And the calcium influx (LFA-1 [2])?
**A.** The calcium influx was “did not induce calcium influx”.

**Q.** And the “induction of the active conformation of LFA-1” value (LFA-1 [2])?
**A.** Its value is “did not induce the active conformation of LFA-1”.

**Q.** For CC(=O)O[C@H]1C(=O)[C@@]2(C)[C@H]([C@H](OC(=O)c3ccccc3)[C@]3(O)C[C@H](OC(=O)[C@H](O)[C@@H](NC(=O)c4ccccc4)c4ccccc4)C(C)=C1C3(C)C)[C@]1(OC(C)=O)CO[C@@H]1C[C@@H]2O [taxol], which “LFA-1 activation (mAb24 binding)” value (LFA-1 [1]) is on record?
**A.** The value was “full activation of LFA-1”.

**Q.** And the “effect on ICAM-2 induced p44/42 MAPK phosphorylation” value (p44/42 MAPK)?
**A.** Its value is “diminished”.

**Q.** With Cc1cc(O)c2c(c1)C(=O)c1cc(O)cc(O)c1C2=O [Emodin] as the compound, how does the “effect on ICAM-2 induced p44/42 MAPK phosphorylation” value (p44/42 MAPK) read?
**A.** The value was “no effect”.

**Q.** With CCCCCCCCCCCCCC(=O)O[C@@H]1[C@@H](C)[C@@]2(O)[C@@H](C=C(CO)C[C@]3(O)C(=O)C(C)=C[C@@H]23)[C@@H]2C(C)(C)[C@]12OC(C)=O [PMA, phorbol myristelated acetate] as the compound, how does the “LFA-1 activation (mAb24 binding)” value (LFA-1 [1]) read?
**A.** Its value is “induction”.

**Q.** With O=C(O)CN(CCN(CC(=O)O)CC(=O)O)CC(=O)O [EDTA] as the compound, how does the “effect on ICAM-2 induced p44/42 MAPK phosphorylation” value (p44/42 MAPK) read?
**A.** The value was “diminished”.
